# Reference: patent US20260256792A1, “TREATMENT OF CHRONIC SPONTANEOUS URTICARIA BY ADMINISTERING (R)-2-[3-[4-AMINO-3-(2-FLUORO-4-PHENOXY-PHENYL)PYRAZOLO[3,4-D]PYRIMIDIN-1-YL]PIPERIDINE-1-CARBONYL]-4-METHYL-4-[4-(OXETAN-3-YL)PIPERAZIN-1-YL]PENT-2-ENENITRILE” (priority 2023, published 2026)
# Tested on: moderate-to-severe chronic spontaneous urticaria (CSU)
# Assay: Phase 2 CSU study: itch severity score over 7 days (ISS7)
# Type: in vivo, human
# Settings: for ISS7 Median / ISS7 Mean (SD): End of Study
# Text: The study comprises a 12 week, randomized, double-blind, placebo-controlled, multi-center, dose-ranging efficacy and safety phase, followed by a 40 week open label extension (OLE) phase (see FIG. 1). The study consists of three phases and an optional OLE phase. […] Clinically, CSU is characterized by the spontaneous and recurrent appearance of pruritic hives. The proposed primary endpoints were the UAS7 at Week 12 in EU and EU reference countries and the ISS7 in the US. Regardless of where a participant was from, all assessments were the same. The UAS7 score is a composite score containing both the HSS7 and the ISS7. This allowed a global assessment of the two key components of urticaria: hives and itch. […] The UAS is a validated PRO measure. […] The daily UAS scores range from 0 to 6 point/day. […] Patients were to complete the UAS using the e-diary. […] The following secondary endpoints were to be analyzed using the same approach as for the primary endpoint: • Change from baseline in UAS7 at Week 4 • Change from baseline in UAS7 at Week 12 (for US and US reference countries) • Change from baseline in ISS7 at Week 12 (except US and US reference countries) • Change from baseline in HSS7 at Week 12
# [1] = 400 mg TID, Prior Omalizumab Use
# [2] = ITT Population, 400 mg BID, Week 2
# [3] = ITT Population, 400 mg QPM, Week 3
# [4] = ITT Population, 400 mg QPM, Week 5
# [5] = ITT Population, 400 mg TID, Week 1
# [6] = ITT Population, 400 mg TID, Week 12
# [7] = ITT population, 400 mg BID, Week 1
# [8] = ITT population, 400 mg BID, Week 3
# [9] = ITT population, 400 mg BID, Week 4
# [10] = ITT population, 400 mg BID, Week 5
# [11] = ITT population, 400 mg BID, Week 6
# [12] = ITT population, 400 mg BID, Week 7
# [13] = ITT population, 400 mg BID, Week 8
# [14] = ITT population, 400 mg BID, Week 9
# [15] = ITT population, 400 mg BID, Week 10
# [16] = ITT population, 400 mg BID, Week 11
# [17] = ITT population, 400 mg BID, Week 12
# [18] = ITT population, 400 mg QPM, Week 1
# [19] = ITT population, 400 mg QPM, Week 2
smiles,measurement,setting,value
"CC(C)(C=C(C#N)C(=O)N1CCC[C@@H](n2nc(-c3ccc(Oc4ccccc4)cc3F)c3c(N)ncnc32)C1)N1CCN(C2COC2)CC1 [rilzabrutinib, (R)-2-[3-[4-amino-3-(2-fluoro-4-phenoxy-phenyl)pyrazolo[3,4-d]pyrimidin-1-yl]piperidine-1-carbonyl]-4-methyl-4-[4-(oxetan-3-yl)piperazin-1-yl]pent-2-enenitrile]",ISS7 Median,"400 mg QPM, Omalizumab-Naïve",2.00
same,ISS7 Mean (SD),"400 mg TID, Omalizumab-Naïve",11.40 (6.11)
same,ISS7 Mean (SD),[1],9.50 (6.36)
same,ISS7 Median,[1],9.50
same,Imputed non-responder n (%) (ISS7 reduction of 5 points or more),[2],2 (4.9) n (%)
same,Non-responder n (%) (ISS7 reduction of 5 points or more),[2],19 (46.3) n (%)
same,OR for rilzabrutinib vs. placebo (ISS7 reduction of 5 points or more),[2],2.693
same,RRD (%) for rilzabrutinib vs. placebo (ISS7 reduction of 5 points or more),[2],23.6%
same,Responder n (%) (ISS7 reduction of 5 points or more),[2],22 (53.7) n (%)
same,Imputed non-responder n (%) (ISS7 reduction of 5 points or more),[3],0 n (%)
same,Non-responder n (%) (ISS7 reduction of 5 points or more),[3],20 (52.6) n (%)
same,OR for rilzabrutinib vs. placebo (ISS7 reduction of 5 points or more),[3],1.881
same,RRD (%) for rilzabrutinib vs. placebo (ISS7 reduction of 5 points or more),[3],15.9%
same,Responder n (%) (ISS7 reduction of 5 points or more),[3],18 (47.4) n (%)
same,Imputed non-responder n (%) (ISS7 reduction of 5 points or more),[4],2 (5.3) n (%)
same,Non-responder n (%) (ISS7 reduction of 5 points or more),[4],21 (55.3) n (%)
same,OR for rilzabrutinib vs. placebo (ISS7 reduction of 5 points or more),[4],0.781
same,RRD (%) for rilzabrutinib vs. placebo (ISS7 reduction of 5 points or more),[4],6.2%
same,Responder n (%) (ISS7 reduction of 5 points or more),[4],17 (44.7) n (%)
same,Imputed non-responder n (%) (ISS7 reduction of 5 points or more),[5],0 n (%)
same,Non-responder n (%) (ISS7 reduction of 5 points or more),[5],14 (34.1) n (%)
same,OR for rilzabrutinib vs. placebo (ISS7 reduction of 5 points or more),[5],6.428
same,RRD (%) for rilzabrutinib vs. placebo (ISS7 reduction of 5 points or more),[5],42.3%
same,Responder n (%) (ISS7 reduction of 5 points or more),[5],27 (65.9) n (%)
same,Imputed non-responder n (%) (ISS7 reduction of 5 points or more),[6],11 (26.8) n (%)
same,Non-responder n (%) (ISS7 reduction of 5 points or more),[6],18 (43.9) n (%)
same,OR for rilzabrutinib vs. placebo (ISS7 reduction of 5 points or more),[6],1.371
same,RRD (%) for rilzabrutinib vs. placebo (ISS7 reduction of 5 points or more),[6],7.9%
same,Responder n (%) (ISS7 reduction of 5 points or more),[6],23 (56.1) n (%)
same,Imputed non-responder n (%) (ISS7 reduction of 5 points or more),[7],1 (2.4) n (%)
same,Non-responder n (%) (ISS7 reduction of 5 points or more),[7],21 (51.2) n (%)
same,OR for rilzabrutinib vs. placebo (ISS7 reduction of 5 points or more),[7],3.262
same,RRD (%) for rilzabrutinib vs. placebo (ISS7 reduction of 5 points or more),[7],25.5%
same,Responder n (%) (ISS7 reduction of 5 points or more),[7],20 (48.8) n (%)
same,Imputed non-responder n (%) (ISS7 reduction of 5 points or more),[8],1 (2.4) n (%)
same,Non-responder n (%) (ISS7 reduction of 5 points or more),[8],19 (46.3) n (%)
same,OR for rilzabrutinib vs. placebo (ISS7 reduction of 5 points or more),[8],2.451
same,RRD (%) for rilzabrutinib vs. placebo (ISS7 reduction of 5 points or more),[8],21.5%
same,Responder n (%) (ISS7 reduction of 5 points or more),[8],22 (53.7) n (%)
same,Imputed non-responder n (%) (ISS7 reduction of 5 points or more),[9],4 (9.8) n (%)
same,Non-responder n (%) (ISS7 reduction of 5 points or more),[9],19 (46.3) n (%)
same,RRD (%) for rilzabrutinib vs. placebo (ISS7 reduction of 5 points or more),[9],5.6%
same,Responder n (%) (ISS7 reduction of 5 points or more),[9],22 (53.7) n (%)
same,Imputed non-responder n (%) (ISS7 reduction of 5 points or more),[10],5 (12.2) n (%)
same,Non-responder n (%) (ISS7 reduction of 5 points or more),[10],18 (43.9) n (%)
same,RRD (%) for rilzabrutinib vs. placebo (ISS7 reduction of 5 points or more),[10],2.7%
same,Responder n (%) (ISS7 reduction of 5 points or more),[10],23 (56.1) n (%)
same,Imputed non-responder n (%) (ISS7 reduction of 5 points or more),[11],4 (9.8) n (%)
same,Non-responder n (%) (ISS7 reduction of 5 points or more),[11],20 (48.8) n (%)
same,RRD (%) for rilzabrutinib vs. placebo (ISS7 reduction of 5 points or more),[11],2.7%
same,Responder n (%) (ISS7 reduction of 5 points or more),[11],21 (51.2) n (%)
same,Imputed non-responder n (%) (ISS7 reduction of 5 points or more),[12],4 (9.8) n (%)
same,Non-responder n (%) (ISS7 reduction of 5 points or more),[12],19 (46.3) n (%)
same,OR for rilzabrutinib vs. placebo (ISS7 reduction of 5 points or more),[12],1.258
same,RRD (%) for rilzabrutinib vs. placebo (ISS7 reduction of 5 points or more),[12],5.5%
same,Responder n (%) (ISS7 reduction of 5 points or more),[12],22 (53.7) n (%)
same,Imputed non-responder n (%) (ISS7 reduction of 5 points or more),[13],5 (12.2) n (%)
same,Non-responder n (%) (ISS7 reduction of 5 points or more),[13],16 (39.0) n (%)
same,OR for rilzabrutinib vs. placebo (ISS7 reduction of 5 points or more),[13],1.388
same,RRD (%) for rilzabrutinib vs. placebo (ISS7 reduction of 5 points or more),[13],8.3%
same,Responder n (%) (ISS7 reduction of 5 points or more),[13],25 (61.0) n (%)
same,Imputed non-responder n (%) (ISS7 reduction of 5 points or more),[14],9 (22.0) n (%)
same,Non-responder n (%) (ISS7 reduction of 5 points or more),[14],19 (46.3) n (%)
same,OR for rilzabrutinib vs. placebo (ISS7 reduction of 5 points or more),[14],1.233
same,RRD (%) for rilzabrutinib vs. placebo (ISS7 reduction of 5 points or more),[14],5.6%
same,Responder n (%) (ISS7 reduction of 5 points or more),[14],22 (53.7) n (%)
same,Imputed non-responder n (%) (ISS7 reduction of 5 points or more),[15],10 (24.4) n (%)
same,Non-responder n (%) (ISS7 reduction of 5 points or more),[15],22 (53.7) n (%)
same,OR for rilzabrutinib vs. placebo (ISS7 reduction of 5 points or more),[15],0.786
same,RRD (%) for rilzabrutinib vs. placebo (ISS7 reduction of 5 points or more),[15],−6.2%
same,Responder n (%) (ISS7 reduction of 5 points or more),[15],19 (46.3) n (%)
same,Imputed non-responder n (%) (ISS7 reduction of 5 points or more),[16],9 (22.0) n (%)
same,Non-responder n (%) (ISS7 reduction of 5 points or more),[16],19 (46.3) n (%)
same,OR for rilzabrutinib vs. placebo (ISS7 reduction of 5 points or more),[16],0.837
same,RRD (%) for rilzabrutinib vs. placebo (ISS7 reduction of 5 points or more),[16],−4.5%
same,Responder n (%) (ISS7 reduction of 5 points or more),[16],22 (53.7) n (%)
same,Imputed non-responder n (%) (ISS7 reduction of 5 points or more),[17],14 (34.1) n (%)
same,Non-responder n (%) (ISS7 reduction of 5 points or more),[17],21 (51.2) n (%)
same,OR for rilzabrutinib vs. placebo (ISS7 reduction of 5 points or more),[17],1.063
same,RRD (%) for rilzabrutinib vs. placebo (ISS7 reduction of 5 points or more),[17],1.6%
same,Responder n (%) (ISS7 reduction of 5 points or more),[17],20 (48.8) n (%)
same,Imputed non-responder n (%) (ISS7 reduction of 5 points or more),[18],0 n (%)
same,Non-responder n (%) (ISS7 reduction of 5 points or more),[18],25 (65.8) n (%)
same,OR for rilzabrutinib vs. placebo (ISS7 reduction of 5 points or more),[18],1.855
same,RRD (%) for rilzabrutinib vs. placebo (ISS7 reduction of 5 points or more),[18],12.7%
same,Responder n (%) (ISS7 reduction of 5 points or more),[18],13 (34.2) n (%)
same,Imputed non-responder n (%) (ISS7 reduction of 5 points or more),[19],0 n (%)
same,Non-responder n (%) (ISS7 reduction of 5 points or more),[19],23 (60.5) n (%)
same,OR for rilzabrutinib vs. placebo (ISS7 reduction of 5 points or more),[19],1.662
same,Responder n (%) (ISS7 reduction of 5 points or more),[19],15 (39.5) n (%)
same,Imputed non-responder n (%) (ISS7 reduction of 5 points or more),"ITT population, 400 mg QPM, Week 4",1 (2.6) n (%)
